{"source": "patent US20190247376A1", "about": "“NICOTINIC ACETYLCHOLINE RECEPTOR AGONIST ATTENUATES ILC2-DEPENDENT AIRWAY HYPERREACTIVITY” (University of Southern California, priority 2016, published 2019)", "test_system": "human ILC2s", "test": "In vitro culture of human ILC2s, IL-5 and IL-13 production", "format": "cell-based", "conditions": "agonist 10 μg mL−1; rh-IL-2, rh-IL-7, rh-IL-33; 24h", "protocol": "FIGS. 7A-7E: α7nAChR agonist prevents human ILC2s mediated AHR and allergic. (FIG. 7A) Human ILC2s were purified from PBMCs via FACS and cultured (10^4 cells per mL) in the presence of recombinant human IL-33 (20 ng mL^−1), IL-2 (10 ng mL^−1), and IL-7 (20 ng mL^−1), with or without α7nAChR agonist for 24h. In the right panel, data are presented as means of four individual donors. (FIG. 7B) Human peripheral-blood mononuclear cells were isolated via FACS and cultured in the presence or absence of rh-IL-2 (10 ng mL^−1) and rh-IL-7 (20 ng mL^−1) for 48 hours, then adoptively transferred into Rag2^−/− GC^−/− mice that were intranasally challenged with rm-IL-33 or PBS, with or without α7nAChR agonist (125 μg) on days 1-3. […]\nFor human peripheral ILC2s, peripheral blood mononuclear cells (PBMCs) were first isolated from human fresh blood by diluting the blood 1:1 in PBS, adding to SepMate™-50 separation tubes (STEMCELL Technologies Inc, Vancouver, Canada) prefilled with 15-mL Lymphoprep™ each (Axis-Shield, Oslo, Norway), and centrifuging at 1200 g for 15 minutes. […] On day 4, lung function was measured and BAL was performed and analyzed.\nMurine ILC2s were isolated from BALB/cByJ mice to >95% purity using the FACSARIA III cell sorter. […] Levels of cytokines were measured by ELISA (eBioscience), according to the manufacturer's instructions.", "data": [{"smiles": "COc1ccc(/C=C2\\CCCN=C2c2cccnc2)c(OC)c1", "note": "[GTS-21, 3-[(3E)-3-[(2,4-dimethoxyphenyl)methylidene]-5,6-dihydro-4H-pyridin-2-yl]pyridine]", "values": [{"measurement": "IL-5 production by human ILC2s", "value": "decreasing"}, {"measurement": "IL-13 production by human ILC2s", "value": "decreasing"}]}]}
